Literature values, collected in paper PMC6476928 (Frontiers in Pharmacology, 2019).

How the values were obtained:
Kv4.2 = biological target: T1, Kv4.2 (Homo sapiens, UniProt Q9NZV8); conditions: X. laevis oocytes, cited from earlier work
T1 sequence (Q9NZV8 1-630): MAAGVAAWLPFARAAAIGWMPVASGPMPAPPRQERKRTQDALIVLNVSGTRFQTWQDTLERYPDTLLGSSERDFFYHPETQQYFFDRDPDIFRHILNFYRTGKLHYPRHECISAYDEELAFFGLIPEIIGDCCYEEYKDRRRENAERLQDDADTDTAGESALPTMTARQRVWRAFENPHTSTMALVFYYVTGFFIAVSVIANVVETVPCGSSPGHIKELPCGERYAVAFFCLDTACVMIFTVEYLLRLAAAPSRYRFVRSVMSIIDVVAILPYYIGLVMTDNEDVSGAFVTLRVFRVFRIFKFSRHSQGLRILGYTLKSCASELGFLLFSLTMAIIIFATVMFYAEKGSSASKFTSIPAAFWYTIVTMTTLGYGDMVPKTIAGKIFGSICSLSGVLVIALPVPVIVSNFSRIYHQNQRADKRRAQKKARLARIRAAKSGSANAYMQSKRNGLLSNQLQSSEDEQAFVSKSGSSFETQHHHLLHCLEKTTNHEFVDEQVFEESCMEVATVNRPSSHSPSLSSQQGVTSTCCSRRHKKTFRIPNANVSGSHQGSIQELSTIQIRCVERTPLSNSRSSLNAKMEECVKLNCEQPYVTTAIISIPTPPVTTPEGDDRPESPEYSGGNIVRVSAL
T1 sequence (Q9NS61 1-270 partner): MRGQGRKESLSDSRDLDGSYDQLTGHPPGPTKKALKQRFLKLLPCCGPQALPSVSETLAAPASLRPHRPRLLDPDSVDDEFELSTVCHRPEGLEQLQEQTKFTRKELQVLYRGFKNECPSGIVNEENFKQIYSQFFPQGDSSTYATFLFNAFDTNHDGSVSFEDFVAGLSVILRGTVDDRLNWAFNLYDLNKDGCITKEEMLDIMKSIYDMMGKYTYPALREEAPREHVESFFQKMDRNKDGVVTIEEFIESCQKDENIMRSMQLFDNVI
Description: (§1) Supplement Data_Sheet_1.docx, table 1: Supplementary Table 1.Activity of spider toxins on Kv2 and Kv4 channel subtypes Activities of spider toxins against different subtypes of Kv2 and Kv4 potassium channels are reported as IC50 (nanomolar) or as percentage of current inhibition at a single dose (nanomolar). Affinity (IC50) measurements | column: kv4.2 || Animal toxins target ion channels, and are thus valuable resources with potential therapeutic applications. The Kv4 subfamily from scorpion ([Maffie et al., 2013]; [Xie et al., 2014]) and spider venom ([Escoubas et al., 2002]; [Ebbinghaus et al., 2004]; [Yuan et al., 2007], [2012]; [DeSimone et al., 2009]) has a rich toxin pharmacology. HaTx, originally isolated from venom of the Chilean rose tarantula (Grammostola spatulata), inhibits Kv4.2 channels effectively, with similar affinity for Kv2.1 ([Swartz and MacKinnon, 1995]; [Swartz, 2007]). Other Kv4 channel inhibitors, Stromatoxin (ScTx1) fr ...

kv4.1 = conditions: X. laevis oocytes; cited from earlier work
Description: Supplement Data_Sheet_1.docx, table 1: Supplementary Table 1.Activity of spider toxins on Kv2 and Kv4 channel subtypes Activities of spider toxins against different subtypes of Kv2 and Kv4 potassium channels are reported as IC50 (nanomolar) or as percentage of current inhibition at a single dose (nanomolar). Affinity (IC50) measurements | column: kv4.1

kv2.1 = conditions: X. laevis oocytes, Hill relation nH = 1; cited from earlier work
Description: as §1, with “kv2.1” for “kv4.2”

Substance | IC50 (Kv4.2; Hill relation nH = 1) | activity on kv4.1 (kv4.1) | inhibition (Kv4.2; 500nM, read-out: percentage of current inhibition kv4.2) | IC50 (kv2.1)
Stromatoxin [ScTx1, reference compound] | 0.0012 µM | No O |  | 
hanatoxin [HaTx1, reference compound] |  |  | 70% | 0.042 µM
